Columns and labels:
Format in all cases: in vivo
barnyard grass [1] = assay: Test Example 1: weedkilling efficacy, preemergent weed treatment in the submerged state; A: barnyard grass; details: treatment dosage 252 g/ha
Procedure, shortened: (§1)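 Pre-emergence application onto floodwater (4 cm, alluvial soil) on the day of sowing, dose expressed as g/ha from diluted emulsion formulation. Weeds sown with 2.5-leaf transplanted rice as crop; plants held at 25–30 °C in greenhouse and scored against assessment criteria after 3 weeks.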

bulrush [2] = assay: Test Example 1: weedkilling efficacy, preemergent weed treatment in the submerged state; B: bulrush; details: treatment dosage 252 g/ha
Procedure, shortened: as §1

oval-leafed pondweed [3] = assay: Test Example 1: weedkilling efficacy, preemergent weed treatment in the submerged state; C: oval-leafed pondweed; details: treatment dosage 252 g/ha
Procedure, shortened: as §1

transplanted rice = assay: Test Example 1: preemergent weed treatment in the submerged state, effect on crop; a: transplanted rice; details: treatment dosage 252 g/ha
Procedure, shortened: as §1

barnyard grass [4] = assay: Test Example 2: weedkilling efficacy, growth period weed treatment in the submerged state; A: barnyard grass; details: treatment dosage 252 g/ha
Procedure, shortened: (§2)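 Weeds treated at the 1-2 leaf stage by application of diluted emulsion onto floodwater (4 cm depth, alluvial soil) at specified g/ha. Grown in greenhouse at 25 to 30° C; herbicidal effect rated three weeks after treatment.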

bulrush [5] = assay: Test Example 2: weedkilling efficacy, growth period weed treatment in the submerged state; B: bulrush; details: treatment dosage 252 g/ha
Procedure, shortened: as §2

oval-leafed pondweed [6] = assay: Test Example 2: weedkilling efficacy, growth period weed treatment in the submerged state; C: oval-leafed pondweed; details: treatment dosage 252 g/ha
Procedure, shortened: as §2

crabgrass = assay: Test Example 3: weedkilling efficacy through soil treatment; D: crabgrass; details: soil treatment, treatment dosage 315 g/ha
Procedure, shortened: (§3)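 Crop and weed responses were judged three weeks after a uniform surface spray of the water-diluted emulsion at the given g/ha rate. Seeds sat beneath about 1.5 cm of sterilized diluvial soil, and boxes stood in a greenhouse at 25 to 30° C.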

green foxtail = assay: Test Example 3: weedkilling efficacy through soil treatment; E: green foxtail; details: soil treatment, treatment dosage 315 g/ha
Procedure, shortened: as §3

wild oat = assay: Test Example 3: weedkilling efficacy through soil treatment; G: wild oat; details: soil treatment, treatment dosage 315 g/ha
Procedure, shortened: as §3

black-grass = assay: Test Example 3: weedkilling efficacy through soil treatment; H: black-grass; details: soil treatment, treatment dosage 315 g/ha
Procedure, shortened: as §3

Italian ryegrass = assay: Test Example 3: weedkilling efficacy through soil treatment; I: Italian ryegrass; details: soil treatment, treatment dosage 315 g/ha
Procedure, shortened: as §3

Indian mallow = assay: Test Example 3: weedkilling efficacy through soil treatment; K: Indian mallow; details: soil treatment, treatment dosage 315 g/ha
Procedure, shortened: as §3

redroot pigweed = assay: Test Example 3: weedkilling efficacy through soil treatment; L: redroot pigweed; details: soil treatment, treatment dosage 315 g/ha
Procedure, shortened: as §3

fig-leafed goosefoot = assay: Test Example 3: weedkilling efficacy through soil treatment; M: fig-leafed goosefoot; details: soil treatment, treatment dosage 315 g/ha
Procedure, shortened: as §3

chickweed = assay: Test Example 3: weedkilling efficacy through soil treatment; N: chickweed; details: soil treatment, treatment dosage 315 g/ha
Procedure, shortened: as §3

catchweed = assay: Test Example 3: weedkilling efficacy through soil treatment; O: catchweed; details: soil treatment, treatment dosage 315 g/ha
Excerpt: Weedkilling Efficacy Test Through Soil Treatment
Sterilized diluvial soil was introduced into 21 cm long, 13 cm wide, 7 cm deep plastic boxes, and seeds of crabgrass, green foxtail, barnyard grass, wild oat, black-grass, Italian ryegrass, common wind-grass, Indian mallow, redroot pigweed, fig-leafed goosefoot, chickweed, catchweed, birds-eye speedwell, corn, soybean, rice, wheat, beet and rapeseed were each spot-sown, and covered with about 1.5 cm of soil. Next, emulsions of compounds of the present invention prepared according to compounding example 2 were diluted with water to give the specified dosages, and applied uniformly onto the soil surface with a small sprayer. The plants were grown by placing the plastic boxes in a greenhouse at 25 to 30° C., and 3 weeks after the pesticide treatment the effect on each type of plant was investigated on the basis of the assessment criteria of test example 1.
A: barnyard grass, B: bulrush, C: oval-leafed pondweed, D: crabgrass, E: green foxtail, F: barnyard grass, G: wild oat, H: black-grass, I: Italian ryegrass, J: common wind-grass, K: Indian mallow, L: redroot pigweed, M: fig-leafed goosefoot, N: chickweed, O: catchweed, p: birds-eye speedwell, a: transplanted rice, b: directly sown rice, c: corn, d: soybean, e: wheat, f: beet, g: rapeseed
Further, pesticide dosage (g/ha) indicates the concentration regulated such that treatment was with only the stated number of grams (g), when calculated per hectare (ha).

birds-eye speedwell = assay: Test Example 3: weedkilling efficacy through soil treatment; p: birds-eye speedwell; details: soil treatment, treatment dosage 315 g/ha
Procedure, shortened: as §3

directly sown rice = assay: Test Example 3: soil treatment, effect on crop; b: directly sown rice; details: soil treatment, treatment dosage 315 g/ha
Procedure, shortened: as §3

corn = assay: Test Example 3: soil treatment, effect on crop; c: corn; details: soil treatment, treatment dosage 315 g/ha
Procedure, shortened: as §3

soybean = assay: Test Example 3: soil treatment, effect on crop; d: soybean; details: soil treatment, treatment dosage 315 g/ha
Procedure, shortened: as §3

wheat = assay: Test Example 3: soil treatment, effect on crop; e: wheat; details: soil treatment, treatment dosage 315 g/ha
Procedure, shortened: as §3

beet = assay: Test Example 3: soil treatment, effect on crop; f: beet; details: soil treatment, treatment dosage 315 g/ha
Procedure, shortened: as §3

Row | Compound | A: barnyard grass, weed kill grade (barnyard grass [1]) | B: bulrush, weed kill grade (bulrush [2]) | C: oval-leafed pondweed, weed kill grade (oval-leafed pondweed [3]) | a: transplanted rice, effect on crop grade (transplanted rice) | A (barnyard grass) weedkilling efficacy grade (barnyard grass [4]) | B (bulrush) weedkilling efficacy grade (bulrush [5]) | C (oval-leafed pondweed) weedkilling efficacy grade (oval-leafed pondweed [6]) | D: crabgrass, weedkilling efficacy grade (crabgrass) | E: green foxtail, weedkilling efficacy grade (green foxtail) | G: wild oat, weedkilling efficacy grade (wild oat) | H: black-grass, weedkilling efficacy grade (black-grass) | I: Italian ryegrass, weedkilling efficacy grade (Italian ryegrass) | K: Indian mallow, weedkilling efficacy grade (Indian mallow) | L: redroot pigweed, weedkilling efficacy grade (redroot pigweed) | M: fig-leafed goosefoot, weedkilling efficacy grade (fig-leafed goosefoot) | N: chickweed, weedkilling efficacy grade (chickweed) | O: catchweed, weedkilling efficacy grade (catchweed) | P: birds-eye speedwell, weedkilling efficacy grade (birds-eye speedwell) | b: directly sown rice, effect on crop grade (directly sown rice) | c: corn, effect on crop grade (corn) | also measured
1 | CC(C)(C(=O)Nc1cccc(I)n1)N1COCN(c2ccccc2)C1=O [A-2-11] | 5 (weed kill ratio 90% or more, (practically complete withering)) | 5 (weed kill ratio 90% or more, (practically complete withering)) | 5 (weed kill ratio 90% or more, (practically complete withering)) | 0 (weed kill ratio 5% or less (practically no effect)) | 4 (weed kill ratio 70% or more, less than 90%) | 5 (weed kill ratio 90% or more, (practically complete withering)) | 3 (weed kill ratio 40% or more, less than 70%) | 5 (weed kill ratio 90% or more, (practically complete withering)) | 5 (weed kill ratio 90% or more, (practically complete withering)) | 2 (weed kill ratio 20% or more, less than 40%) | 5 (weed kill ratio 90% or more, (practically complete withering)) | 5 (weed kill ratio 90% or more, (practically complete withering)) | 0 (weed kill ratio 5% or less (practically no effect)) | 0 (weed kill ratio 5% or less (practically no effect)) | 3 (weed kill ratio 40% or more, less than 70%) | 4 (weed kill ratio 70% or more, less than 90%) | 2 (weed kill ratio 20% or more, less than 40%) | 4 (weed kill ratio 70% or more, less than 90%) | 3 (weed kill ratio 40% or more, less than 70%) | 0 (weed kill ratio 5% or less (practically no effect)) | d: soybean, effect on crop grade (soybean): 0 (weed kill ratio 5% or less (practically no effect)); e: wheat, effect on crop grade (wheat): 1 (weed kill ratio 5% or more, less than 20%); f: beet, effect on crop grade (beet): 2 (weed kill ratio 20% or more, less than 40%)
2 | Cc1ccnc(NC(=O)C(C)(C)N2COCN(c3ccccc3)C2=O)c1 [A-2-37] | 5 (weed kill ratio 90% or more, (practically complete withering)) | 5 (weed kill ratio 90% or more, (practically complete withering)) | 5 (weed kill ratio 90% or more, (practically complete withering)) | 0 (weed kill ratio 5% or less (practically no effect)) | 5 (weed kill ratio 90% or more, (practically complete withering)) | 5 (weed kill ratio 90% or more, (practically complete withering)) | 3 (weed kill ratio 40% or more, less than 70%) | 5 (weed kill ratio 90% or more, (practically complete withering)) | 4 (weed kill ratio 70% or more, less than 90%) | 3 (weed kill ratio 40% or more, less than 70%) | 3 (weed kill ratio 40% or more, less than 70%) | 5 (weed kill ratio 90% or more, (practically complete withering)) | 0 (weed kill ratio 5% or less (practically no effect)) | 1 (weed kill ratio 5% or more, less than 20%) | 3 (weed kill ratio 40% or more, less than 70%) | 1 (weed kill ratio 5% or more, less than 20%) | 0 (weed kill ratio 5% or less (practically no effect)) | 5 (weed kill ratio 90% or more, (practically complete withering)) | 2 (weed kill ratio 20% or more, less than 40%) | 1 (weed kill ratio 5% or more, less than 20%) | d: soybean, effect on crop grade (soybean): 0 (weed kill ratio 5% or less (practically no effect)); e: wheat, effect on crop grade (wheat): 0 (weed kill ratio 5% or less (practically no effect)); f: beet, effect on crop grade (beet): 0 (weed kill ratio 5% or less (practically no effect))

From patent US9738634B2, “Heterocyclic amide compound and herbicide” (SYNGENTA PARTICIPATIONS AG, priority 2013, dated 2017)
